Read-outs that look alike come from different tables or passages of the source.
Tests used:
human α7 nAChR [1] = target: T1, human α7 nAChR (Homo sapiens, UniProt P36544); experiment: two-electrode voltage clamp, Xenopus oocytes; type: cell-based
T1 construct: gene CHRNA7; full-length subunit cDNA in pSP64GL, cRNA injected in Xenopus laevis oocytes, homopentamer
Description: two-electrode voltage clamp, Xenopus oocytes on human α7 nAChR

human α7 nAChR [2] = target: T1, human α7 nAChR; experiment: two-electrode voltage clamp, Xenopus oocytes; type: cell-based; remark: listed apart in the source

T1 sequence (P36544 23-502): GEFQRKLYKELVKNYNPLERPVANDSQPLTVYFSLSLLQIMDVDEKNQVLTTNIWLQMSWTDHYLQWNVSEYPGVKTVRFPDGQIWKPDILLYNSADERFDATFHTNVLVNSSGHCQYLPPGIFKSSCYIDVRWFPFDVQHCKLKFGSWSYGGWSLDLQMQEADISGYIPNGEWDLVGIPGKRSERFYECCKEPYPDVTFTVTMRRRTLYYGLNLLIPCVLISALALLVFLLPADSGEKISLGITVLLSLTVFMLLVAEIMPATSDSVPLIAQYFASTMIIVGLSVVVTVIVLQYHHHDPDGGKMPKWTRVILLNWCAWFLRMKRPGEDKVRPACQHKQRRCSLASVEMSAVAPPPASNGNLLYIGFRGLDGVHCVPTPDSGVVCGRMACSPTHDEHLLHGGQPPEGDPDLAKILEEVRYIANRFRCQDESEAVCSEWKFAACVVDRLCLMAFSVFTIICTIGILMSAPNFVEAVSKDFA

| SMILES | EC50 (human α7 nAChR [1]; read-out: EC50) | further results |
| --- | --- | --- |
| Cc1cc(C)c(C2Nc3ccc(S(N)(=O)=O)cc3C3C=CCC32)c(C)c1C (stereo not drawn) [2,3,4,6MP-TQS, cis-trans-4-(2,3,4,6-tetramethylphenyl)-3a,4,5,9b-tetrahydro-3H-cyclopenta[c]quinoline-8-sulfonamide] | 9.1 ± 2 µM |  |
| Cc1ccc(C2Nc3ccc(S(N)(=O)=O)cc3C3C=CCC32)c(C)c1C (stereo not drawn) [2,3,4MP-TQS, cis-cis-4-(2,3,4-trimethylphenyl)-3a,4,5,9b-tetrahydro-3H-cyclopenta[c]quinoline-8-sulfonamide] | 9.8 ± 0.8 µM |  |
| Cc1cc(C)c(C)c(C2Nc3ccc(S(N)(=O)=O)cc3C3C=CCC32)c1 (stereo not drawn) [2,3,5MP-TQS, cis-cis-4-(2,3,5-trimethylphenyl)-3a,4,5,9b-tetrahydro-3H-cyclopenta[c]quinoline-8-sulfonamide] | 3.9 ± 0.7 µM |  |
| Cc1ccc(C)c(C2Nc3ccc(S(N)(=O)=O)cc3C3C=CCC32)c1C (stereo not drawn) [2,3,6MP-TQS, cis-trans-4-(2,3,6-trimethylphenyl)-3a,4,5,9b-tetrahydro-3H-cyclopenta[c]quinoline-8-sulfonamide] |  | IC50 (human α7 nAChR [2]): 23 ± 2.8 µM |
| Cc1cc(C)c(C2Nc3ccc(S(N)(=O)=O)cc3C3C=CCC32)c(C)c1 (stereo not drawn) [2,4,6MP-TQS, cis-trans-4-mesityl-3a,4,5,9b-tetrahydro-3H-cyclopenta[c]quinoline-8-sulfonamide] |  | IC50 (human α7 nAChR [2]): 5.2 ± 0.8 µM |
| Cc1ccc(C2Nc3ccc(S(N)(=O)=O)cc3C3C=CCC32)c(C)c1 (stereo not drawn) [2,4MP-TQS, cis-cis-4-(2,4-dimethylphenyl)-3a,4,5,9b-tetrahydro-3H-cyclopenta[c]quinoline-8-sulfonamide] | 11 ± 1 µM |  |
| Cc1cccc(C)c1C1Nc2ccc(S(N)(=O)=O)cc2C2C=CCC21 (stereo not drawn) [2,6MP-TQS, cis-trans-4-(2,6-dimethylphenyl)-3a,4,5,9b-tetrahydro-3H-cyclopenta[c]quinoline-8-sulfonamide] |  | IC50 (human α7 nAChR [2]): 43 ± 14 µM |
| Cc1ccccc1C1Nc2ccc(S(N)(=O)=O)cc2C2C=CCC21 (stereo not drawn) [2MP-TQS, cis-cis-4-o-tolyl-3a,4,5,9b-tetrahydro-3H-cyclopenta[c]quinoline-8-sulfonamide] | 16 ± 1.3 µM |  |
| Cc1ccc(C2Nc3ccc(S(N)(=O)=O)cc3C3C=CCC32)cc1C (stereo not drawn) [3,4MP-TQS, cis-cis-4-(3,4-dimethylphenyl)-3a,4,5,9b-tetrahydro-3H-cyclopenta[c]quinoline-8-sulfonamide] |  | Imax (human α7 nAChR [1]; 100 μM, allosteric agonist, relative to 3 mM acetylcholine, -60 mV): 7.8 ± 3.0 fold effect |
| Cc1cc(C)cc(C2Nc3ccc(S(N)(=O)=O)cc3C3C=CCC32)c1 (stereo not drawn) [3,5MP-TQS, cis-cis-4-(3,5-dimethylphenyl)-3a,4,5,9b-tetrahydro-3H-cyclopenta[c]quinoline-8-sulfonamide] | 3.7 ± 1.2 µM |  |
| Cc1cccc(C2Nc3ccc(S(N)(=O)=O)cc3C3C=CCC32)c1 (stereo not drawn) [3MP-TQS, cis-cis-4-m-tolyl-3a,4,5,9b-tetrahydro-3H-cyclopenta[c]quinoline-8-sulfonamide] |  | Fold potentiation (human α7 nAChR [1]; allosteric potentiation (type II PAM) of 100 μM acetylcholine, maximal PAM concentration (100 μM, Figure 4), -60 mV): 22 ± 2.1 fold |
| Cc1ccc(C2Nc3ccc(S(N)(=O)=O)cc3C3C=CCC32)cc1 (stereo not drawn) [4MP-TQS, cis-cis-4-p-tolyl-3a,4,5,9b-tetrahydro-3H-cyclopenta[c]quinoline-8-sulfonamide] | 27 ± 3.1 µM |  |
| Cc1c(C)c(C)c(C2Nc3ccc(S(N)(=O)=O)cc3C3C=CCC32)c(C)c1C (stereo not drawn) [PentaMP-TQS, cis-trans-4-(2,3,4,5,6-pentamethylphenyl)-3a,4,5,9b-tetrahydro-3H-cyclopenta[c]quinoline-8-sulfonamide] |  | EC50 (human α7 nAChR [1]; allosteric potentiation (type I PAM) of 100 μM acetylcholine, 10 s preapplication, -60 mV, bell-shaped curve, unreliable): 0.55 ± 0.36 µM |

— PMC4319022 (The Journal of Biological Chemistry, 2014)
